Data published in ChEMBL document CHEMBL5233281, “Design, synthesis and biological evaluation of novel 1,3,4,9-tetrahydropyrano[3,4-b]indoles as potential treatment of triple negative breast cancer by suppressing PI3K/AKT/mTOR pathway” (Bioorg Med Chem, 2021).
Active and inactive are the calls of the source. No cut-off for these calls is given here.

Key:
MDA-MB-231 [1] = experiment: Induction of reactive oxygen species generation in human MDA-MB-231 cells at 2 uM incubated for 24 hrs by DCFH-DA staining based flow cytometry relative to control; format: functional
[2] = Inhibition of PI3K/Akt/mTOR signaling in human MDA-MB-231 cells assessed as reduction in mTOR phosphorylation at Ser2481 residue at 2 uM incubated for 72 hrs by western blot analysis; format: cell-based
MDA-MB-231 [3] = experiment: Downregulation of PI3K protein expression in human MDA-MB-231 cells incubated for 48 hrs by western blot analysis; format: functional, cell-based; conditions: dose 1-4 µM
MDA-MB-231 [4] = experiment: Induction of apoptosis in human MDA-MB-231 cells assessed as increase in cleaved caspase-3 protein expression at 1 to 4 uM incubated for 48 hrs by western blot analysis; format: functional, cell-based; conditions: dose 1-4 µM
MDA-MB-231 [5] = experiment: Induction of apoptosis in human MDA-MB-231 cells assessed as increase in cleaved caspase-9 protein expression at 1 to 4 uM incubated for 48 hrs by western blot analysis; format: functional, cell-based; conditions: dose 1-4 µM
MDA-MB-231 [6] = experiment: Induction of reactive oxygen species generation in human MDA-MB-231 cells at 4 uM incubated for 24 hrs by DCFH-DA staining based flow cytometry; format: functional, cell-based
[7] = Inhibition of PI3K/Akt/mTOR signaling in human MDA-MB-231 cells assessed as reduction in mTOR phosphorylation at Ser2448 residue at 2 uM incubated for 72 hrs by western blot analysis; format: cell-based
MDA-MB-231 [8] = experiment: Downregulation of PI3K protein expression in human MDA-MB-231 cells at 2 uM incubated for 72 hrs in presence of IGF-1 by western blot analysis; format: functional, cell-based
MDA-MB-231 [9] = experiment: Induction of apoptosis in human MDA-MB-231 cells assessed as increase in ratio of Bax to Bcl-2 protein expression measured after 48 hrs by western blot analysis; format: functional, cell-based; conditions: dose 1-4 µM
MDA-MB-231 [10] = experiment: Induction of apoptosis in human MDA-MB-231 cells assessed as increase in apoptotic cells at 2 uM incubated for 72 hrs in presence of IGF-1 by AnnexinV-FITC/PI staining based flow cytometry; format: functional
MDA-MB-231 [11] = experiment: Induction of apoptosis in human MDA-MB-231 cells assessed as increase in apoptotic cells at 2 uM incubated for 72 hrs by AnnexinV-FITC/PI staining based flow cytometry (reference value: 5.24%); format: functional
[12] = Inhibition of PI3K/Akt/mTOR signaling in human MDA-MB-231 cells assessed as reduction in Akt phosphorylation at Ser473 residue at 2 uM incubated for 72 hrs in presence of IGF-1 by western blot analysis; format: cell-based
MDA-MB-231 [13] = experiment: Induction of cell cycle arrest in human MDA-MB-231 cells assessed as downregulation of CDK4 protein expression at 1 to 4 uM incubated for 48 hrs by western blot analysis; format: functional, cell-based; conditions: dose 1-4 µM
MDA-MB-231 [14] = experiment: Antiproliferative activity against human MDA-MB-231 cells assessed as inhibition of cell growth measured after 24 to 96 hrs by CCK8 assay; format: functional, cell-based; conditions: dose 1-4 µM, time 24-96 hrs
MDA-MB-231 [15] = experiment: Induction of mitochondrial membrane potential depolarization in human MDA-MB-231 cells assessed as decrease in ratio of red to green fluorescence intensity at 1 to 4 uM incubated for 24 hrs by JC-1 staining based flow cytometry; format: functional, cell-based; conditions: dose 1-4 µM
A549 = experiment: Antiproliferative activity against human A549 cells assessed as inhibition of cell growth incubated for 72 hrs by CCK8 assay; format: functional, cell-based; conditions: A549, 72 h
MDA-MB-231 [16] = experiment: Downregulation of Akt protein expression in human MDA-MB-231 cells at 2 uM incubated for 72 hrs in presence of IGF-1 by western blot analysis; format: functional, cell-based
MDA-MB-231 [17] = experiment: Induction of cell cycle arrest in human MDA-MB-231 cells assessed as accumulation of cells at G0/G1 phase at 1 uM incubated for 48 hrs by PI staining based flow cytometry (reference value: 48.33%); format: functional
MDA-MB-231 [18] = experiment: Induction of apoptosis in human MDA-MB-231 cells assessed as increase in apoptotic cells at 4 uM incubated for 48 hrs by AnnexinV-FITC/PI staining based flow cytometry (reference value: 5.24%); format: functional
BGC-823 = experiment: Antiproliferative activity against human BGC-823 cells assessed as inhibition of cell growth incubated for 72 hrs by CCK8 assay; format: functional, cell-based; conditions: BGC-823, 72 h
MCF7 = experiment: Antiproliferative activity against human MCF7 cells assessed as inhibition of cell growth incubated for 72 hrs by CCK8 assay; format: functional, cell-based; conditions: MCF7, 72 h
[19] = Inhibition of PI3K/Akt/mTOR signaling in human MDA-MB-231 cells assessed as reduction in mTOR phosphorylation at Ser2481 residue incubated for 48 hrs by western blot analysis; format: cell-based; conditions: dose 1-4 µM
[20] = Inhibition of PI3K/Akt/mTOR signaling in human MDA-MB-231 cells assessed as upregulation of PTEN expression incubated for 48 hrs by western blot analysis; format: cell-based; conditions: dose 1-4 µM
MDA-MB-231 [21] = experiment: Downregulation of Akt protein expression in human MDA-MB-231 cells incubated for 48 hrs by western blot analysis; format: functional, cell-based; conditions: dose 1-4 µM
MDA-MB-231 [22] = experiment: Induction of apoptosis in human MDA-MB-231 cells assessed as increase in Bax protein expression measured after 48 hrs by western blot analysis; format: functional, cell-based; conditions: dose 1-4 µM
[23] = Inhibition of PI3K/Akt/mTOR signaling in human MDA-MB-231 cells assessed as reduction in Akt phosphorylation at Thr308 residue at 2 uM incubated for 72 hrs in presence of IGF-1 by western blot analysis; format: cell-based
MDA-MB-231 [24] = experiment: Depletion of intracellular GSH content in human MDA-MB-231 cells at 2 uM incubated for 48 hrs relative to control; format: functional
MDA-MB-231 [25] = experiment: Induction of cell cycle arrest in human MDA-MB-231 cells assessed as accumulation of cells at G0/G1 phase at 2 uM incubated for 48 hrs by PI staining based flow cytometry (reference value: 48.33%); format: functional
MDA-MB-231 [26] = experiment: Downregulation of mTOR protein expression in human MDA-MB-231 cells incubated for 48 hrs by western blot analysis; format: functional, cell-based; conditions: dose 1-4 µM
MDA-MB-231 [27] = experiment: Downregulation of mTOR protein expression in human MDA-MB-231 cells at 2 uM incubated for 72 hrs in presence of IGF-1 by western blot analysis; format: functional, cell-based
MDA-MB-231 [28] = experiment: Induction of apoptosis in human MDA-MB-231 cells assessed as increase in apoptotic cells at 2 uM incubated for 24 hrs by AnnexinV-FITC/PI staining based flow cytometry (reference value: 5.24%); format: functional
PC-3 = experiment: Antiproliferative activity against human PC-3 cells assessed as inhibition of cell growth incubated for 72 hrs by CCK8 assay; format: functional, cell-based; conditions: PC-3, 72 h
MDA-MB-231 [29] = experiment: Increase in intracellular Ca2+ level in human MDA-MB-231 cells at 1 to 4 uM incubated for 48 hrs by Fluo-4AM dye based flow cytometry; format: functional, cell-based; conditions: dose 1-4 µM
[30] = Inhibition of PI3K/Akt/mTOR signaling in human MDA-MB-231 cells assessed as reduction in mTOR phosphorylation at Ser2448 residue incubated for 48 hrs by western blot analysis; format: cell-based; conditions: dose 1-4 µM
MDA-MB-231 [31] = experiment: Induction of cell cycle arrest in human MDA-MB-231 cells assessed as upregulation of p21 protein expression at 1 to 4 uM incubated for 48 hrs by western blot analysis; format: functional, cell-based; conditions: dose 1-4 µM

In the case of `Fc1cc(F)cc(C2OCCc3c2[nH]c2ccccc32)c1` (stereo not given), the “fold change (FC)” value (MDA-MB-231 [1]) is reported as 1.73, the inhibition [2] is reported as “inactive” and the inhibition (MDA-MB-231 [3]) is reported as “Dose-Dependent Effect”. The Activity (MDA-MB-231 [4]) was “Active”, the Activity (MDA-MB-231 [5]) was “Active” and the Activity (MDA-MB-231 [6]) was “Active”. For the same compound, the inhibition [7] was “inactive”, the inhibition (MDA-MB-231 [8]) was “inactive” and the Activity (MDA-MB-231 [9]) was “Dose-Dependent Effect”. The Activity (MDA-MB-231 [10]) was 18.5%, the Activity (MDA-MB-231 [11]) was 31.34% and the inhibition [12] was “inactive”. For the same compound, the Activity (MDA-MB-231 [13]) was “Active”, the Activity (MDA-MB-231 [14]) was “Dose-Dependent Effect” and the Activity (MDA-MB-231 [15]) was “Active”. For the same compound, the IC50 (A549) was 14.8 µM, the inhibition (MDA-MB-231 [16]) was “inactive” and the Activity (MDA-MB-231 [17]) was 54.33%. The Activity (MDA-MB-231 [18]) was 37.86%, the IC50 (BGC-823) was 9.11 µM and the IC50 (MCF7) was 7.89 µM. The inhibition [19] was “Dose-Dependent Effect”, the inhibition [20] was “Dose-Dependent Effect” and the inhibition (MDA-MB-231 [21]) was “Dose-Dependent Effect”. For the same compound, the Activity (MDA-MB-231 [22]) was “Dose-Dependent Effect”, the inhibition [23] was “inactive” and the “fold change (FC)” value (MDA-MB-231 [24]) was 0.63. The Activity (MDA-MB-231 [25]) was 64%, the inhibition (MDA-MB-231 [26]) was “Dose-Dependent Effect” and the inhibition (MDA-MB-231 [27]) was “inactive”. The Activity (MDA-MB-231 [28]) was 13.14%, the IC50 (PC-3) was 9.04 µM and the Activity (MDA-MB-231 [29]) was “Active”. For the same compound, the inhibition [30] was “Dose-Dependent Effect” and the Activity (MDA-MB-231 [31]) was “Active”.
